Like-named read-outs stand apart in the source and are kept apart here. Marks after values point to notes of the source that are not given here.
Assays:
[1] = test system: rhesus monkeys; test: Conflict model of anxiolysis (mult FR, FR+PUN); type: in vivo, rhesus monkey; details: i.v.; for Non-Suppressed, Mean responses/s (SEM) / Suppressed, Mean responses/s (SEM): N = 4 monkeys
Source text: The conflict procedure methodology includes a two-component multiple fixed-ratio, fixed-ratio plus punishment schedule (mult FR, FR+PUN). An important feature of this model is that it is highly predictive of clinically active doses in human subjects (Rowlett et al. 2006, Psychopharmacology 184: 201-11). One component of this schedule was associated with a distinctive visual stimulus (e.g., red light) and the other component was associated with a different stimulus (e.g., green light). In each component, completion of 10 responses (FR 10) produced a food pellet followed by a brief (10 sec) timeout period. The component ended following delivery of 5 food pellets or 5 min, whichever occurred first. A 10-min timeout period occurred before each of four cycles with two components (1 red, 1 green) per cycle. When performance in both components of the multiple schedule was stable, responding in one component was suppressed by superimposing a FR schedule of response-produced electric shock. Under the superimposed schedule, every nth response (n=15-25, adjusted for each monkey depending on individual performance) produced shock. Once responding was stable (at least three sessions in which suppressed responding was less than 50% of non-suppressed responding, with no upward or downward trend in response rates in either component), investigational compounds were administered i.v. during the extended timeout periods using a cumulative dosing technique. This technique allowed determination of a four-point dose-response function in a single session.
Table 2 summarizes data for TPA023B in the conflict procedure (n=4 monkeys, 2 females and 2 males), with alprazolam as a positive control. Average responses when vehicle was administered was 2.2 in the non-suppressed component, decreased by ˜98% by shock presentation in the suppressed component (mean=0.05 responses). For non-suppressed responding, TPA023B had no effects on mean rates of responding or percent of control over a 100-fold dose range (0.01 to 1.0 mg/kg, i.v.). […] This effect was similar to that observed with 0.03 mg/kg, i.v., of alprazolam. A striking characteristic of TPA023B in this procedure is the lack of attenuation of rates of responding at higher doses.

[2] = test system: CNS benzodiazepine binding sites; details: rodents and primates; cited from earlier work
[3] = target: α2 subunit-containing GABAA receptors (Homo sapiens, UniProt P18507+P47869); set-up: key: act as partial positive modulators for particular subtype combinations; none: zero efficacy (i.e., antagonism) at other subtypes; details: cited from earlier work
[4] = test system: rhesus monkeys; test: i.v. self-administration under progressive-ratio (PR) schedule; type: in vivo, rhesus monkey; details: dose at which self-administration was highest; n=4 monkeys; FIG. 5
Source text: The abuse potential of novel compounds can be determined by use of i.v. self-administration procedures, in which a compound is available to a subject previously trained to press a lever to obtain a known drug of abuse. Our standard procedure is to use a progressive-ratio (PR) schedule, in which an increasing number of responses are required to obtain an injection. The last response requirement completed is referred to as a “break point” (BP) and represents the maximum amount of “work” a subject will perform to obtain the drug or compound.
In the present example, eight rhesus monkeys (4 females, 4 males) were trained to respond under a schedule of i.v. midazolam (a conventional benzodiazepine) injection at 0.03 mg/kg/injection. Once self-administration had been acquired (>20 injections/daily 2-hour sessions), monkeys were trained under the PR schedule as described by Shinday et al. (2013). Daily experimental sessions consisted of five components, each made up of four trials (i.e., 20 trials total). […]
In order to directly compare lorazepam and TPA023B self-administration, we here analyzed BP values at the doses that maintained the highest level of mean injections/session and compared these BP values with those obtained after vehicle tests.

[5] = test system: men; details: cited from earlier work
[6] = test system: rhesus monkeys; test: Midazolam self-administration (PR) after TPA023B pretreatment; type: in vivo, rhesus monkey
Procedure: To test this, we have trained monkeys to self-administer the short-acting conventional benzodiazepine midazolam (0.056 mg/kg/injection, i.v.) in the PR procedure, as described above. During test sessions, we initially kept the training dose of midazolam constant, and administered i.v. pretreatments of TPA023B (0.003, 0.01, 0.03, 0.1, 0.3 mg/kg, of vehicle) immediately prior to the beginning of the session. A key consideration for any pharmacotherapy, as well as interpretation of blockade of reinforcing effects generally, is the extent to which the blockade is specific to the drug target and not a generalized suppression of behavior, e.g., due to sedative-motor effects inhibiting the ability of the monkey to press the lever. Another possible confounding factor that would potentially result in blockade of drug taking is general sickness or perceptual alterations. In particular, appetite suppression would represent an undesirable side effect in a benzodiazepine addiction pharmacotherapy.
To further evaluate the extent to which attenuation of responding was due to pharmacological antagonism and to evaluate an exemplary range of effective doses, we evaluated single doses of TPA023B administered prior to sessions in which differing doses of midazolam were tested.

[7] = test system: rhesus monkeys; details: visual recognition memory and spatial working memory; cited from earlier work
[8] = test system: rodent, squirrel monkey; details: rodent rotarod and chain-pulling, squirrel monkey lever pressing; cited from earlier work
[9] = test system: rodent, squirrel monkey; details: rodent and squirrel monkey models; cited from earlier work

Chain of α2 subunit-containing GABAA receptors (P47869 29-451): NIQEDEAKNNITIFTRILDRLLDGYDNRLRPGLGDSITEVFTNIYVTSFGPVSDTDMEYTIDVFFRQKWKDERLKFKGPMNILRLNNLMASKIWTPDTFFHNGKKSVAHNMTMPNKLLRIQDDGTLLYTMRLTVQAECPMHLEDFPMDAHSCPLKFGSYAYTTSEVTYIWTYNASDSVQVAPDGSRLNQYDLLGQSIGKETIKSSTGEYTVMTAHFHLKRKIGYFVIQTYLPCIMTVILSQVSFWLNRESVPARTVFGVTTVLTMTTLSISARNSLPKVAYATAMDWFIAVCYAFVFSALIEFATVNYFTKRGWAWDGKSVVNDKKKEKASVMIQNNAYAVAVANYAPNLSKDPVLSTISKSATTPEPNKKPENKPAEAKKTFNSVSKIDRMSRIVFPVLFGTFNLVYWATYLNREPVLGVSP
Chain of α2 subunit-containing GABAA receptors (P18507 40-475): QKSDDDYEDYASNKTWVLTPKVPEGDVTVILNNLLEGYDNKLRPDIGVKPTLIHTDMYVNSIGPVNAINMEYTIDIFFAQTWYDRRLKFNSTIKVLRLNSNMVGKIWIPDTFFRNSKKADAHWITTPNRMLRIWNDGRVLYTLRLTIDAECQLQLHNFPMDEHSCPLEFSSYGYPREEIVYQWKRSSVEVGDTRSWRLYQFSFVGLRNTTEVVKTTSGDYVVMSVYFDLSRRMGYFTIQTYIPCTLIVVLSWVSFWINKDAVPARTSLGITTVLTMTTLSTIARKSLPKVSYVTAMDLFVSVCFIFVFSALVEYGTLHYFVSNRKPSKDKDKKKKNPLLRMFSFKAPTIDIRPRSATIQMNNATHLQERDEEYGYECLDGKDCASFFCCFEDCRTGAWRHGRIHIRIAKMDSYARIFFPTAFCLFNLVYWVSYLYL
Chain of α2 subunit-containing GABAA receptors (P28472 26-473 partner): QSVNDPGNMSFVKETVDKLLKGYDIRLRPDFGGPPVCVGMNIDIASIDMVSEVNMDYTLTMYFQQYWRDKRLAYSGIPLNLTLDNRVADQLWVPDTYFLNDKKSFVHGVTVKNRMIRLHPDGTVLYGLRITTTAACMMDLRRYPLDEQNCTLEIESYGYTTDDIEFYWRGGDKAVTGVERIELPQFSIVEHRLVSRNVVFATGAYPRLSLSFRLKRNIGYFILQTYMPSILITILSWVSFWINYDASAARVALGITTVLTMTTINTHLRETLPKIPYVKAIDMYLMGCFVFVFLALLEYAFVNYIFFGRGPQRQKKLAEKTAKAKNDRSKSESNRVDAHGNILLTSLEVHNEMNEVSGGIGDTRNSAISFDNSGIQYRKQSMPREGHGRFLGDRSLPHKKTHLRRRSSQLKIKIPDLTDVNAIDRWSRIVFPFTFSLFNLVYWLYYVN

CC(C)(O)c1cnn2c(-c3ccc(F)c(-c4c(F)cccc4C#N)c3)cnc2n1 [TPA023B]
Non-Suppressed, Mean responses/s (SEM) ([1]; 0.01 mg/kg): 2.0 (0.08) responses/s
Suppressed, Mean responses/s (SEM) ([1]; 0.01 mg/kg): 0.03 (0.02) responses/s
Non-Suppressed, Mean responses/s (SEM) ([1]; 0.1 mg/kg): 2.0 (0.15) responses/s
Suppressed, Mean responses/s (SEM) ([1]; 0.1 mg/kg): 2.46 (0.40)* responses/s
Non-Suppressed, Mean responses/s (SEM) ([1]; 1.0 mg/kg): 2.1 (0.97) responses/s
Suppressed, Mean responses/s (SEM) ([1]; 1.0 mg/kg): 2.00 (0.75)* responses/s
effect on non-suppressed responding (mean rates, percent of control) ([1]; 100-fold dose range, 0.01 to 1.0 mg/kg): no effects
effect on rates of suppressed responding (anti-conflict effect) ([1]; reaching non-suppressed levels at 0.1 mg/kg): significantly enhanced
occupancy of CNS benzodiazepine binding sites at minimally-effective doses in anxiolysis assays [2]: 61-88%
Subtype α2 [3]: partial
median break point (BP), highest response requirement [4]: 160
ataxia ([5]; any dose, up to 3.0 mg/70 kg): No ataxia
adverse effects ([5]; oral, 1.5 mg/70 kg, men): no adverse effects
adverse effects ([5]; oral, 3.0 mg/70 kg, men): fatigue and drowsiness in some subjects
subjects with fatigue and drowsiness ([5]; oral, 3.0 mg/70 kg, men): 1-4 subjects out of 8 total
effect on midazolam dose-response function ([6]; TPA023B 0.01 mg/kg pretreatment): shifted the midazolam dose-response function to the right
reduction of midazolam-maintained responding ([6]; TPA023B 0.03 mg/kg i.v. pretreatment, midazolam 0.018 and 0.056 mg/kg/injection): > 50%
midazolam self-administration, percent maximum ([6]; all midazolam doses, FIG. 8): below 50%
doses with both anti-conflict effects and blockade of midazolam self-administration ([6]; conflict and self-administration data combined, FIG. 8): ≥ 0.03 mg/kg
midazolam self-administration, % of maximum ([6]; higher doses of TPA023B (above 0.01 mg/kg), even at higher midazolam doses): < 50%
midazolam self-administration, percent maximum ([6]; highest TPA023B dose, FIG. 8): below 25%
effect on self-administration of midazolam ([6]; pretreatment with 0.003 mg/kg TPA023B): did not attenuate
accuracy in DMTS and SOSS tasks [7]: did not alter accuracy
sedation [8]: minimally sedating
anxiolytic-like effects [9]: anxiolytic-like effects
